Results on 17 compounds are retold here after ChEMBL document CHEMBL1137114, “Antituberculous activity of some aryl semicarbazone derivatives” (2004).

Assay [1] relates to Mycobacterium tuberculosis. As to the kind of experiment: Antimycobacterial activity of compound against Mycobacterium tuberculosis H37Rv at 6.25 ug/mL. Type of assay: functional.
Assay [2] has as its system Mycobacterium tuberculosis. As to the kind of experiment: Antimycobacterial activity of compound against Mycobacterium tuberculosis H37Rv at 1.56 ug/mL. Type of assay: functional.
Assay [3] deals with Mycobacterium tuberculosis. As to the kind of experiment: Antimycobacterial activity of compound against Mycobacterium tuberculosis H37Rv at 5 ug/mL. Type of assay: functional.
For assay [4], the system named is Mycobacterium tuberculosis. As to the kind of experiment: Antimycobacterial activity of compound against Mycobacterium tuberculosis H37Rv at 8 ug/mL. Type of assay: functional.
Assay [5] concerns Mycobacterium tuberculosis. As to the kind of experiment: Antimycobacterial activity of compound against Mycobacterium tuberculosis H37Rv at 2 ug/mL. Type of assay: functional.
Assay [6] relates to Mycobacterium tuberculosis. As to the kind of experiment: Antimycobacterial activity of compound against Mycobacterium tuberculosis H37Rv at 1.88 ug/mL. It counts as functional.
Assay [7] concerns Mycobacterium tuberculosis. As to the kind of experiment: Antimycobacterial activity of compound against Mycobacterium tuberculosis H37Rv at 2.50 ug/mL.
The subject of assay [8] is Mycobacterium tuberculosis. As to the kind of experiment: Antimycobacterial activity of compound against Mycobacterium tuberculosis H37Rv at 0.05 ug/mL. It counts as functional.
Assay [9] concerns Mycobacterium tuberculosis. As to the kind of experiment: Antimycobacterial activity of compound against Mycobacterium tuberculosis H37Rv at 0.125 ug/mL. Type of assay: functional.

Turning to `CC(=O)Nc1ccc(NC(=O)N/N=C/c2ccccc2[N+](=O)[O-])cc1`, the inhibition (as a rule, how much of the control response was suppressed) at 6.25 µg/mL in assay [1] was 90%.
Still for that read-out and setting: as for `Cc1c(Cl)cccc1NC(=O)N/N=C/c1ccccc1O`, the figure is 0%; as for `CC(=O)Nc1ccc(NC(=O)N/N=C/c2ccc([N+](=O)[O-])cc2)cc1`, 95%.
`Cc1c(Cl)cccc1NC(=O)N/N=C/c1ccccc1[N+](=O)[O-]` came in with an inhibition at 6.25 µg/mL in assay [1] of 10%.
`CC(=O)Nc1ccc(NC(=O)N/N=C/c2ccccc2O)cc1`: the inhibition at 6.25 µg/mL in assay [1] amounted to 5%.
`CC(=O)Nc1ccc(NC(=O)N/N=C/c2ccc(N(C)C)cc2)cc1` registered an inhibition at 6.25 µg/mL in assay [1] of 2%.
The same measure, in the same setting: as for `Cc1c(Cl)cccc1NC(=O)N/N=C/c1ccc(N(C)C)cc1`, the figure is 0%; as for `Cc1c(Cl)cccc1NC(=O)N/N=C/c1cccc([N+](=O)[O-])c1`, 58%.
In turn, `CC(=O)Nc1ccc(NC(=O)N/N=C/c2cccc([N+](=O)[O-])c2)cc1` came in with an inhibition at 1.56 µg/mL in assay [2] of 100%.
The compound `Cc1c(Cl)cccc1NC(=O)N/N=C/c1ccc([N+](=O)[O-])cc1` yielded an inhibition at 6.25 µg/mL in assay [1] of 24%.
On to `NC[C@H]1O[C@H](O[C@H]2[C@H](O)[C@@H](O[C@H]3O[C@H](CO)[C@@H](O)[C@H](N)C3O)[C@H](N)C[C@@H]2N)[C@H](O)[C@@H](O)[C@@H]1O` (single isomer, unassigned) [KANAMYCIN], for which the inhibition at 5 µg/mL in assay [3] was determined as 90%.
In [4], `Nc1ccc(C(=O)O)c(O)c1` [AMINOSALICYLIC ACID] showed an inhibition at 8 µg/mL of 92%.
`O=C(O)c1cn(C2CC2)c2cc(N3CCNCC3)c(F)cc2c1=O` [CIPROFLOXACIN] returned an inhibition at 2 µg/mL in assay [5] of 95%.
`CC[C@@H](CO)NCCN[C@@H](CC)CO` [ETHAMBUTOL] had an inhibition at 1.88 µg/mL in assay [6] of 90%.
In the case of `CCc1cc(C(N)=S)ccn1` [ETHIONAMIDE], in assay [7], 2.5 µg/mL produced 90% inhibition.
With `NNC(=O)c1ccncc1` [ISONIAZID], the inhibition at 0.05 µg/mL in assay [8] stood at 95%.
Take `CO[C@H]1/C=C/O[C@@]2(C)Oc3c(C)c(O)c4c(O)c(c(/C=N/N5CCN(C)CC5)c(O)c4c3C2=O)NC(=O)/C(C)=C\C=C\[C@H](C)[C@H](O)[C@@H](C)[C@@H](O)[C@@H](C)[C@H](OC(C)=O)[C@@H]1C` [RIFAMPIN]: in assay [9], the inhibition at 0.125 µg/mL stood at 95%.
